This passage reports IC50 results from patent US8937077B2, “Bicyclic diamines as janus kinase inhibitors” (Merck Sharp & Dohme Corp., priority 2010, dated 2015).

In one assay the target is T1, Jak1 (Homo sapiens, UniProt P23458).
T1 construct: using a recombinant purified GST-tagged catalytic domain for each enzyme; GST; purchased Invitrogen M4290
T1 sequence (P23458 875-1153 limits assumed): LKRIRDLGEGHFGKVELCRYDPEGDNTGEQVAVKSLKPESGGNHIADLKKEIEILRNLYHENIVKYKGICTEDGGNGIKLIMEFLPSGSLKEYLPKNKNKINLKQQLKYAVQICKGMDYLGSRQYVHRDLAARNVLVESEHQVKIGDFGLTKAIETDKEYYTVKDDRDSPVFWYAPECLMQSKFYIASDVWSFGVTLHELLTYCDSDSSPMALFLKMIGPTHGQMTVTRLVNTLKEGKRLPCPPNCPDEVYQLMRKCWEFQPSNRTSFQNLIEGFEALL
The assay can be described thus: Jak Biochemical HTRF Assay (Jak1). The note with it: IC50 class, recombinant GST-tagged catalytic domain, read-out: Jak1 activity. The essentials: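 Recombinant GST-tagged Jak1 catalytic domain was preincubated with compound and peptide substrate for 30 min at room temperature, and the reaction was then started with ATP and run 120 min. Buffer contained 2 mM DTT and 0.05% BSA. Read-out was HTRF (665/615 nm) with Eu-pY20 antibody and streptavidin-Dylight, and IC50 values came from 4-parameter fits of percent inhibition.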
A general note: Time-resolved FRET reads energy transfer from a long-lived donor to a nearby acceptor.
Turning to `CNC(=O)c1ccc(COC(=O)N2CCC[C@@H]3[C@H]2CCN3c2ncnc3[nH]ccc23)cc1` [Example 7-3, 4-(methylcarbamoyl)benzyl (3aR,7aR)-1-(7H-pyrrolo[2,3-d]pyrimidin-4-yl)octahydro-4H-pyrrolo[3,2-b]pyridine-4-carboxylate], the IC50 fell in the range of 100 to 1000 nM.
As to `CCCCC(=O)N1CCCC2C1CCN2c1ncnc2[nH]ccc12` (racemic) [Example 29-2, 4-(4-pentanoyloctahydro-1H-pyrrolo[3,2-b]pyridin-1-yl)-7H-pyrrolo[2,3-d]pyrimidine], the IC50 fell in the range of 10 to 100 nM.
With `O=C(c1cn2ccccc2n1)N1CCC[C@@H]2[C@H]1CCN2c1ncnc2[nH]ccc12` [Example 29-25, 4-[(3aR,7aR)-4-(imidazo[1,2-a]pyridin-2-ylcarbonyl)octahydro-1H-pyrrolo[3,2-b]pyridin-1-yl]-7H-pyrrolo[2,3-d]pyrimidine], the IC50 is 100 to 1000 nM.
For the compound `O=C(OCc1cccc(F)c1)N1CCCC2C1CCN2c1ncnc2[nH]ccc12` (stereo not drawn) [Example 3-9, 3-fluorobenzyl 1-(7H-pyrrolo[2,3-d]pyrimidin-4-yl)octahydro-4H-pyrrolo[3,2-b]-pyridine-4-carboxylate], the IC50 lay within 10 to 100 nM.
The same measure, in the same setting: then `O=C(OCCN1CCOCC1)N1CCC[C@@H]2[C@H]1CCN2c1ncnc2[nH]ccc12` [Example 3-39, 2-morpholin-4-ylethyl (3aR,7aR)-1-(7H-pyrrolo[2,3-d]pyrimidin-4-yl)octahydro-4H-pyrrolo[3,2-b]pyridine-4-carboxylate], with 10 to 100 nM; and `O=C(c1ccc2ccccc2c1)N1CCC[C@@H]2[C@H]1CCN2c1ncnc2[nH]ccc12` [Example 29-26, 4-[(3aR,7aR)-4-(naphthalen-2-ylcarbonyl)octahydro-1H-pyrrolo[3,2-b]pyridin-1-yl]-7H-pyrrolo[2,3-d]pyrimidine], with 10 to 100 nM.
On the same count and under the same terms, then `O=C(c1cnc2ccccc2c1)N1CCC[C@@H]2[C@H]1CCN2c1ncnc2[nH]ccc12` [Example 29-44, 3-{[(3aR,7aR)-1-(7H-pyrrolo[2,3-d]pyrimidin-4-yl)octahydro-4H-pyrrolo[3,2-b]pyridin-4-yl]carbonyl}quinoline], with 10 to 100 nM.
Consider `CN(C)C(=O)c1ccc(COC(=O)N2CCC[C@@H]3[C@H]2CCN3c2ncnc3[nH]ccc23)cc1` [Example 7-1, 4-(dimethylcarbamoyl)benzyl (3aR,7aR)-1-(7H-pyrrolo[2,3-d]pyrimidin-4-yl)octahydro-4H-pyrrolo[3,2-b]pyrindine-4-carboxylate], for which the IC50 is 100 to 1000 nM.
The same measure, in the same setting: then `COc1ccc(COC(=O)N2CCCC3C2CCN3c2ncnc3[nH]ccc23)cc1` (stereo not drawn) [Example 3-14, 4-methoxybenzyl 1-(7H-pyrrolo[2,3-d]pyrimidin-4-yl)octahydro-4H-pyrrolo[3,2-b]-pyridine-4-carboxylate], with 1 to 10 nM; and `O=C(c1ccncc1)N1CCC[C@@H]2[C@H]1CCN2c1ncnc2[nH]ccc12` [Example 29-12, 4-[(3aR,7aR)-4-(pyridin-4-ylcarbonyl)octahydro-1H-pyrrolo[3,2-b]pyridin-1-yl]-7H-pyrrolo[2,3-d]pyrimidine], with 10 to 100 nM; and `c1ccc(-c2nnc(N3CCCC4C3CCN4c3ncnc4[nH]ccc34)o2)cc1` [Example 31, (3aS,7aS and 3aR,7aR) 4-[4-(5-phenyl-1,3,4-oxadiazol-2-yl)octahydro-1H-pyrrolo[3,2-b]pyridin-1-yl]-7H-pyrrolo[2,3-d]pyrimidine], with 100 to 1000 nM.
Still for that read-out and setting: then `NC(=O)c1ccc(COC(=O)N2CCC[C@@H]3[C@H]2CCN3c2ncnc3[nH]ccc23)cc1` [Example 7-2, 4-carbamoylbenzyl (3aR,7aR)-1-(7H-pyrrolo[2,3-d]pyrimidin-4-yl)octahydro-4H-pyrrolo[3,2-b]pyridine-4-carboxylate], with 10 to 100 nM; and `CN(C)C(=O)N1CCC(C(=O)N2CCC[C@@H]3[C@H]2CCN3c2ncnc3[nH]ccc23)CC1` [Example 29-35, N,N-dimethyl-4-{[(3aR,7aR)-1-(7H-pyrrolo[2,3-d]pyrimidin-4-yl)octahydro-4H-pyrrolo[3,2-b]pyridin-4-yl]carbonyl}piperidine-1-carboxamide], with 10 to 100 nM; and `CN(C)CCNC(=O)c1ccc(COC(=O)N2CCC[C@@H]3[C@H]2CCN3c2ncnc3[nH]ccc23)cc1` [Example 7-4, 4-{[2-(dimethylamino)ethyl]carbamoyl}benzyl (3aR,7aR)-1-(7H-pyrrolo[2,3-d]pyrimidin-4-yl)octahydro-4H-pyrrolo[3,2-b]pyridine-4-carboxylate], with 100 to 1000 nM.
On the same count and under the same terms, then `O=C(c1ccccc1Cl)N1CCC[C@@H]2[C@H]1CCN2c1ncnc2[nH]ccc12` [Example 29-17, 4-{(3aR,7aR)-4-[(2-chlorophenyl)carbonyl]octahydro-1H-pyrrolo[3,2-b]pyridin-1-yl}-7H-pyrrolo[2,3-d]pyrimidine], with 10 to 100 nM; and `O=C(c1ccnc2ccccc12)N1CCC[C@@H]2[C@H]1CCN2c1ncnc2[nH]ccc12` [Example 29-61, 4-{[(3aR,7aR)-1-(7H-pyrrolo[2,3-d]pyrimidin-4-yl)octahydro-4H-pyrrolo[3,2-b]pyridin-4-yl]carbonyl}quinoline], with 10 to 100 nM; and `O=C(OCc1cccnc1)N1CCCC2C1CCN2c1ncnc2[nH]ccc12` [Example 3-1, (3aS,7aS and 3aR,7aR) pyridin-3-ylmethyl 1-(7H-pyrrolo[2,3-d]pyrimidin-4-yl)octahydro-4H-pyrrolo[3,2-b]pyridine-4-carboxylate], with 10 to 100 nM.
Turning to `O=C(c1cccs1)N1CCC[C@@H]2[C@H]1CCN2c1ncnc2[nH]ccc12` [Example 29-28, 4-[(3aR,7aR)-4-(thiophen-2-ylcarbonyl)octahydro-1H-pyrrolo[3,2-b]pyridin-1-yl]-7H-pyrrolo[2,3-d]pyrimidine], the IC50 was in the range of 1 to 10 nM.
Still for that read-out and setting: then `O=C(c1c[nH]c2ccncc12)N1CCC[C@@H]2[C@H]1CCN2c1ncnc2[nH]ccc12` [Example 29-45, 4-[(3aR,7aR)-4-(1H-pyrrolo[3,2-c]pyridin-3-ylcarbonyl)octahydro-1H-pyrrolo[3,2-b]pyridin-1-yl]-7H-pyrrolo[2,3-d]pyrimidine], with 10 to 100 nM; and `O=C(OC1CCOCC1)N1CCCC2C1CCN2c1ncnc2[nH]ccc12` (stereo not drawn) [Example 3-10, tetrahydro-2H-pyran-4-yl 1-(7H-pyrrolo[2,3-d]pyrimidin-4-yl)octahydro-4H-pyrrolo[3,2-b]pyridine-4-carboxylate], with 10 to 100 nM; and `COC(=O)c1ccc(CCCOC(=O)N2CCC[C@@H]3[C@H]2CCN3c2ncnc3[nH]ccc23)cc1` [Example 3-22, 3-[4-(methoxycarbonyl)phenyl]propyl (3aR,7aR)-1-(7H-pyrrolo[2,3-d]pyrimidin-4-yl)octahydro-4H-pyrrolo[3,2-b]pyridine-4-carboxylate], with 10 to 100 nM.
Consider `CC(Cc1ccccc1)C(=O)N1CCC[C@@H]2[C@H]1CCN2c1ncnc2[nH]ccc12` (mixture of isomers) [Example 29-56, (2S and 2R)-2-methyl-3-phenyl-1-[(3aR,7aR)-1-(7H-pyrrolo[2,3-d]pyrimidin-4-yl)octahydro-4H-pyrrolo[3,2-b]pyridine-4-yl]propan-1-one], for which the IC50 lay in the range of 10 to 100 nM.
On the same count and under the same terms, then `O=C(OCc1ccccc1F)N1CCC[C@@H]2[C@H]1CCN2c1ncnc2[nH]ccc12` [Example 3-33, 2-fluorobenzyl (3aR,7aR)-1-(7H-pyrrolo[2,3-d]pyrimidin-4-yl)octahydro-4H-pyrrolo[3,2-b]pyridine-4-carboxylate], with 1 to 10 nM.

Staying with this assay, now noted: recombinant GST-tagged catalytic domain, 31.8 μM ATP, read-out: Representative IC50 values.
For `O=C(c1cccs1)N1CCC[C@@H]2[C@H]1CCN2c1ncnc2[nH]ccc12` [Example 29-28, 4-[(3aR,7aR)-4-(thiophen-2-ylcarbonyl)octahydro-1H-pyrrolo[3,2-b]pyridin-1-yl]-7H-pyrrolo[2,3-d]pyrimidine], the IC50 worked out at 5 nM.
